From a melting point compilation (Tetko et al.; mined from patent text by program, amines drawn as free bases though some values may be those of a salt)

Compound	melting point
CCNC(=NC#N)NCCN(CC1CCc2ccccc2O1)C(=O)OC(C)(C)C (stereo unspecified)	115 °C
CCCc1c(OCCCOc2ccc(C(=O)C(=O)OCC)cc2)ccc(C(=O)OC)c1O	62 to 64 °C
NS(=O)(=O)c1cscn1	142 to 146 °C
CC12CCC(O)CC1CCC1C2CCC2(C)C(C=NNC(=N)N)CCC12O (stereo unspecified)	163 to 165 °C
COc1cc(OC)c2c(=O)cc(-c3ccc(OC)c(I)c3)oc2c1	209 to 210 °C
COc1ccc2[nH]c3c(C)nc4c(c3c2c1)C(=O)CC(C)(C)C4	241 to 243 °C
COCc1c(S(C)(=O)=O)ccc(C(=O)O)c1C	129 to 131 °C
O=C(OCc1ccccc1)[C@@H]1CCC(=O)N1C(=O)c1ccccc1	101 °C
CC1(C)CCCC(=O)N1	128 to 131 °C
O=[N+]([O-])c1cnn(-c2c(Cl)cc(Cl)cc2Cl)c1O	106 to 115 °C
Cc1cc(-c2ccc(-c3ccco3)cc2)n(-c2ccc(S(C)(=O)=O)cc2)c1	193 to 194 °C
CCCCCCCCCCCCCCOc1ccc(OCc2ccccc2)c(C(=O)OC)c1	43 to 46 °C
N#Cc1ccccc1OC1SCC(O)C(O)C1O (stereo unspecified)	130 to 132 °C
CN1C(c2ccc(Br)cc2)C2C(=O)N(Cc3ccc4c(c3)OCO4)C(=O)C2C1(C)C (stereo unspecified)	109 to 111 °C
CC(C)c1cc(C(C)C)c(CC(=O)NS(=O)(=O)Oc2c(C(C)C)cc(S(N)(=O)=O)cc2C(C)C)c(C(C)C)c1	164 to 166 °C
O=S(=O)(Cc1c(C(F)(F)F)nn(-c2ccccc2)c1O)c1ccccc1	122 to 123 °C
O=C(Nc1cccc2cc(Br)cnc12)C1c2ccccc2-c2ccccc21	196 to 198 °C
CCOC(=O)c1c(OCC)cc(C(F)(F)F)nc1C(F)(F)F	57 to 59 °C

Compound	melting point
COc1cnc(CS(C)=O)nc1OC(=O)N(C)C (stereo unspecified)	122 °C
CC(=O)C1(Nc2ccccc2)CCN(C(C)C)CC1	107 °C
CC(=O)OC1CC(C)(C)N(OC(C)=O)C(C)(C)C1	72 to 73 °C
CC(=O)NC(C)Cc1ccc(CCCC(=O)O)cc1 (stereo unspecified)	114 to 117 °C
O=C(O)CNC(=O)NCCCCC1CCSS1 (stereo unspecified)	95 to 96 °C
Cc1c(C(=O)OCc2ccccc2)sc(NC(=O)C(F)(F)F)c1C(=O)OC(C)(C)C	136 to 138 °C
CN(C)C=Cc1cccc(CC(=O)O)c1[N+](=O)[O-]	124 to 126 °C
C=C(CC(C)C(=O)O)C(=O)O (stereo unspecified)	106 to 108 °C
CC(C)C(c1cncnc1C#N)N(C)C(=O)Cc1ccccc1 (stereo unspecified)	80 to 81 °C
O=C(O)COc1cc(F)c(F)cc1C(=O)NCc1ccc(Br)cc1F	156 to 158 °C
Cc1ccc([N+](=O)[O-])c(NC=C2C(=O)OC(C)(C)OC2=O)c1	218 to 220 °C
O=CN(CCl)c1ccccc1	67 °C
O=C(O)c1nn(-c2c(Cl)cc(C(F)(F)F)cc2Cl)cc1OC(F)F	180 to 183 °C
CCCCN(c1c([O-])[c+](N(CCCC)C2CC(C)(C)NC(C)(C)C2)[c+]1[O-])C1CC(C)(C)NC(C)(C)C1	151 to 152 °C
CC(=O)Nc1ccc(NC2CCN3CCc4ccccc4C3C2)cc1 (stereo unspecified)	210 to 213 °C
COC(=O)c1cc(S(C)(=O)=O)nc(Cl)n1	127 to 129 °C
CCOC(=O)C1=C(C(F)(F)F)Nc2n[nH]cc2C1c1ccc(C(=O)OCC)cc1 (stereo unspecified)	157 to 160 °C
Cc1c(N)cc(C)c2c(=O)[nH]ccc12	242 °C

Next, values leading:

melting point	Compound
129 to 130 °C	CCOCc1nc2c(N)nc(C)c(C)c2n1CCOCC#Cc1ccccc1
233 to 235 °C	CC(=O)NC(Cc1cc(F)c(F)cc1F)Cc1nnc2n1ccc1ncnn12 (stereo unspecified)
227 to 228 °C	Nc1ncc(C(=O)NCc2ccc(C(F)(F)F)cc2)c(N2CCCC2)n1
143 °C	Cc1c(C(C)CC(=O)O)n(Cc2ccc(Cl)cc2)c2ccc(F)cc12 (stereo unspecified)
50 to 51 °C	CCOC(=O)COC(=O)c1c(Cl)cccc1Cl
147 to 151 °C	COCc1ncc(Nc2ccc(Cl)cc2)nc1-n1nc(C)cc1C
245 to 246 °C	N#Cc1ccc(-c2ncccc2O)cc1
158 to 160 °C	CCOC(=O)c1c(O)c2cccnc2n(C)c1=O
115 °C	O=C(O)c1nc(-c2cc(Oc3ccc(Cl)cc3Cl)c(O)cc2Cl)no1
138 to 139 °C	CN1CCCNC1=Nc1ccccc1N1CCOCC1
183 to 184 °C	O=C1CCCc2c1c1cccc(F)c1n2Cc1ccccc1
155 °C	CCC(=O)C1=C(O)CC(c2ccc3c(c2)OCCO3)CC1=O (stereo unspecified)
160 to 163 °C	O=C(O)c1ccc(Br)cc1COc1ccccc1
175 to 177 °C	c1ccc(C2CCN(c3nsc4ccccc34)CC2)cc1
236 to 239 °C	CCCc1nc2c(N)nc3cc(O)ccc3c2s1
148 to 151 °C	Cc1cnc(CCCCNc2ncc(Cc3ccc(C)nc3)c(=O)[nH]2)c(Br)c1
76 to 77 °C	CCOC(=O)c1cc2cc(CC#N)ccc2o1
80 to 83 °C	COC(=O)c1ccc2ccc(OC)cc2c1O
231 to 233 °C	CC(=O)Oc1cc2nc[nH]c(=O)c2cc1OCc1ccccc1
113 to 115 °C	CC1(CN2CCC(C(=O)c3ccc(OC(F)(F)F)cc3)CC2)Cn2cc([N+](=O)[O-])nc2O1 (stereo unspecified)

melting point	Compound
174 to 175 °C	CN1CCN(C(=O)Cn2c(-c3cc(Cl)ccn3)nc3cccnc32)CC1
200 °C	O=C(Cn1c(-c2ccc(Cl)cc2)nc2cccnc21)NCc1ccccc1
268 °C	Cc1ccc2c(=O)c(O)cn(C)c2c1
160 to 161 °C	CCOC(=O)N(CCNc1ccc2ncc(Br)n2n1)c1ccccc1
205 to 207 °C	COC(=O)CS(=O)(=O)Cc1cccc(-c2nc(=O)c3ccccc3s2)n1
195 to 197 °C	COc1ccc(Nc2nnc(Cc3ccncc3)c3ccccc23)cc1Cl
122 to 125 °C	CC(C)c1ccc(-n2nnc(-c3ccc(OC(=O)C(C)(C)C)cc3)n2)cc1
156 to 159 °C	CC(C)N1CCN(c2ccc(N)cc2)C(=O)C1
174 to 178 °C	Nc1cccc(C(=O)c2cc3c(Oc4ccc(Cl)cc4)cncc3s2)c1
88 to 90 °C	CCN(CC)CCNC(=O)c1cnc2ccc(I)cc2c1F
241 to 243 °C	COc1cc2nc(N3CCN(C(=O)CCCO)CC3)nc(N)c2cc1OC
188 °C	COC(=O)CCCc1cc2nc(Cl)ccc2n1S(=O)(=O)c1ccc(N(C)C)cc1
233 to 235 °C	O=S1(=O)NCN(C2CCCCC2)c2ccc(Cl)cc21
151 to 152 °C	CNS(=O)(=O)c1cc(S(=O)(=O)NCc2ccccc2)c(Cl)cc1N
> 250 °C	Cc1c2c(nn1C)c(N)nc1ccccc12
183 to 184 °C	Cc1c(N)cccc1-c1ccnc(Nc2ccc(C(=O)N3CCOCC3)cc2)n1
120 °C	COc1ccc(N2CCOCC2)c2sc(-c3nc4c([nH]3)CCN(C(=O)OC(C)(C)C)CC4)nc12
122 °C	O=C(Nc1ccccc1OCC1CO1)c1cccc2[nH]ccc12 (stereo unspecified)
139 to 140 °C	Cc1cnc(SCc2cc3c(cc2O)CCCO3)n1C
126 to 128 °C	CCOC(=O)C(=O)Nc1c([N+](=O)[O-])sc2ccc(Cl)cc12
